According to patent US5750720A, “4-[(thien-3-yl)methyl]-imidazole analgesics” (Ortho Pharmaceutical Corporation, priority 1996, dated 1998):
Structures can show the parent of a compound that is named as a salt. Where two headings read alike, the source gives them in different places.

Tests used:
[1] = target: T1, Alpha2D adrenergic receptor (Rattus norvegicus, UniProt P22909); assay: Alpha2D adrenergic receptor binding assay (3H-paraaminoclonidine, rat cortex synaptic membranes); set-up: species or system Wistar rats
T1 construct: aliquots of the synaptic membrane fraction; from tissue; host or cells: rat cerebral cortex, synaptic membrane fraction
T1 sequence (P22909 1-465): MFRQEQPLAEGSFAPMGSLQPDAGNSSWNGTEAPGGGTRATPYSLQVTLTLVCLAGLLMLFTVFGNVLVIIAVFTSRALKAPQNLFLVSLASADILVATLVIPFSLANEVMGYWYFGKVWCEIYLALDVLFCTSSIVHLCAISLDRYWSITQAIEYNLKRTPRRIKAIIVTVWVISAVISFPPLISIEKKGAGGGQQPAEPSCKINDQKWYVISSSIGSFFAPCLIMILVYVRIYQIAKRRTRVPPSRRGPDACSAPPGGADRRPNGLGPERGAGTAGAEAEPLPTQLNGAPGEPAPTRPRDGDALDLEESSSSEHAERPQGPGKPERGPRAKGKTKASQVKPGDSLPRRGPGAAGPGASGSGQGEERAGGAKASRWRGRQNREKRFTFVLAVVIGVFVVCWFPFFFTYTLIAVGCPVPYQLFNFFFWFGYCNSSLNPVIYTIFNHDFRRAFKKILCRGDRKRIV
Experimental: Alpha2D adrenergic receptor binding assay
Male, Wistar rats (150-250 g, VAF, Charles River, Kingston, N.Y.) are sacrificed by cervical dislocation and their brains removed and placed immediately in ice cold HEPES buffered sucrose. The cortex is dissected out and homogenized in 20 volumes of HEPES sucrose in a Teflon®-glass homogenizer. The homogenate is centrifuged at 1000 g for 10 min, and the resulting supernatant centrifuged at 42,000 g for 10 min. The resulting pellet is resuspended in 30 volumes of 3 mM potassium phosphate buffer, pH 7.5, preincubated at 25° C. for 30 min and recentrifuged. The resulting pellet is resuspended as described above and used for the receptor binding assay. Incubation is performed in test tubes containing phosphate buffer, 2.5 mM MgCl2, aliquots of the synaptic membrane fraction, the ligand ^3 H-paraaminoclonidine and test drug at 25°0 C. for 20 min. The incubation is terminated by filtration of the tube contents through glass fiber filter sheets. Following washing of the sheets with 10 mM HEPES buffer, the adhering radioactivity is quantified by liquid scintillation spectrometry.
Binding of the test drug to the receptor is determined by comparing the amount of radiolabeled ligand bound in control tubes without drug to the amount of radiolabeled ligand bound in the presence of the drug. Dose-response data are analyzed with LIGAND, a nonlinear curve fitting program designed specifically for the analysis of ligand binding data. This assay is described by Simmons, R. M. A., and Jones, D. J., Binding of [^3 H-]prazosin and [^3 H-]p-aminoclonidine to α-Adrenoceptors in Rat Spinal Cord, Brain Research 445:338-349, 1988.

[2] = system: acetylcholine bromide-induced abdominal constriction response; assay: Mouse Acetylcholine Bromide-Induced Abdominal Constriction Assay; format: in vivo; conditions: p.o., 30 min before acetylcholine bromide 5.5 mg/kg i.p.; for inhibition at 30 mg/kg: @30 mpk; for ED50: po, 0.5 h, dose producing 50% analgesia
Experimental: Mouse Acetylcholine Bromide-Induced Abdominal Constriction Assay
The mouse acetylcholine bromide-induced abdominal constriction assay, as described by Collier et al. in Brit. J. Pharmacol. Chem. Ther., 32:295-310, 1968, with minor modifications was used to assess analgesic potency of the compounds herein. The test drugs or appropriate vehicle were administered orally (p.o.) and 30 minutes later the animal received an intraperitoneal (i.p.) injection of 5.5 mg/kg acetylcholine bromide (Matheson, Coleman and Bell, East Rutherford, N.J.). The mice were then placed in groups of three into glass bell jars and observed for a ten minute observation period for the occurrence of an abdominal constriction response (defined as a wave of constriction and elongation passing caudally along the abdominal wall, accompanied by a twisting of the trunk and followed by extension of the hind limbs). The percent inhibition of this response to a nociceptive stimulus (equated to % analgesia) was calculated as follows: The % Inhibition of response, i.e., % analgesia is equal to the difference between the number of control animals response and the number of drug-treated animals response times 100 divided by the number of control animals responding.
At least 15 animals were used for control and in each of the drug treated groups. At least three doses were used to determine each dose response curve and ED50 (that dose which would produce 50% analgesia). The ED50 values and their 95% fiducial limits were determined by a computer assisted probit analysis.

α2-adrenoceptor [3] = conditions: cited from earlier work; for hypotensive effect: animals and humans, magnitude relatively insignificant
α2-adrenoceptor [4] = conditions: non-opiate mechanism, without opiate liability; cited from earlier work
[5] = 3H-paraaminoclonidine, rat cortex, 25° C, 20 min, read-out: Ki

Compound | Ki [1] [pM] | inhibition at 30 mg/kg [2] [%] | Ki [1, 5] [pM] | ED50 [2] [mg/kg] | also measured
Cc1csc(C)c1Cc1c[nH]cn1 [Cp-8, 4-[(2,4-Dimethylthien-3-yl)methyl]-1H-imidazole Fumarate] | 100 | 100 | – | – | –
CCc1sccc1C(C)c1c[nH]cn1 (stereo not shown) | – | 100 | 1100 | – | –
Cc1sccc1C(C)c1c[nH]cn1 (stereo not shown) | – | – | 2300 | 1.6 | –
CCc1cscc1Cc1c[nH]cn1 [Cp-9, 4-[(4-ethylthien-3-yl)methyl]-1H-imidazole fumarate] | 290 | 100 | – | – | –
Cc1csc(C)c1C(C)c1c[nH]cn1 (stereo not shown) | – | – | 33500 | 7.8 | –
Cc1sccc1Cc1c[nH]cn1 [Cp-1, 4-[(2-Methylthien-3-yl)methyl]-1H-imidazole Fumarate] | 440 | 100 | – | – | –
Clc1cccc(Cl)c1NC1=NCCN1 [Clonidine] | – | – | – | – | other behavioral and physiological effects (α2-adrenoceptor [3]; in vivo): sedation and cardiovascular effects; analgesia (α2-adrenoceptor [4]): produce analgesia through a non-opiate mechanism
CCc1cscc1C(C)c1c[nH]cn1 (stereo not shown) [Cp-10, 4-[1-(4-ethylthien-3-yl)ethyl]-1H-imidazole fumarate] | 280 | 100 | – | – | –
Cc1cscc1Cc1c[nH]cn1.O=C(O)/C=C/C(=O)O [Cp-2, 4-[(4-Methylthien-3-yl)methyl]-1H-imidazole Fumarate] | 470 | – | – | 0.4 | –
c1nc(Cc2ccsc2)c[nH]1 | – | – | 3100 | 6.4 | –
C=C(c1c[nH]cn1)c1csc(Br)c1Br | – | 27 | 980 | – | –
Cc1cccc(Cc2c[nH]cn2)c1C [detomidine] | – | – | – | – | hypotensive effect (α2-adrenoceptor [3]): hypotensive in animals and in humans, but the magnitude of this cardiovascular effect is relatively insignificant
CCc1cc(C(C)c2c[nH]cn2)c(CC)s1 (stereo not shown) | – | 67 | 11400 | – | –
Cc1cc(C(C)c2c[nH]cn2)c(C)s1 (stereo not shown) | – | 100 | 6100 | – | –
Cc1cccc(C(C)c2cnc[nH]2)c1C (racemic) [Medetomidine] | – | – | – | – | hypotensive effect (α2-adrenoceptor [3]): hypotensive in animals and in humans, but the magnitude of this cardiovascular effect is relatively insignificant
CC(c1ccsc1)c1c[nH]cn1 (stereo not shown) | – | 100 | 2500 | – | –
CCc1cc(Cc2c[nH]cn2)c(CC)s1.O=C(O)/C=C/C(=O)O [Cp-6, 4-[(2,5-diethylthien-3-yl)methyl]-1H-imidazole Fumarate] | 400 | – | – | 3.7 | –
CCC(c1c[nH]cn1)c1cscc1C (stereo not shown) [Cp-4, 4-[1-(4-Methylthien-3-yl)propyl]-1H-imidazole Fumarate] | 970 | 100 | – | – | –
CCc1sccc1Cc1c[nH]cn1.O=C(O)/C=C/C(=O)O [Cp-7, 4-[(2-ethylthien-3-yl)methyl]-1H-imidazole fumarate] | 70 | – | – | 0.4 | –
Cc1cscc1C(C)c1c[nH]cn1.O=C(O)/C=C/C(=O)O (stereo not shown) [Cp-3, 4-[1-(4-Methylthien-3-yl)ethyl]-1H-imidazole Fumarate] | 390 | – | – | 0.4 | –
Cc1cc(Cc2c[nH]cn2)c(C)s1.O=C(O)/C=C/C(=O)O [Cp-5, 4-[(2,5-dimethylthien-3-yl)methyl]-1H-imidazole Fumarate] | 690 | – | – | 1.3 | –
